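48-hour exposure; five concentrations; linearly interpolated endpoints. TGI: total growth inhibition.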
Tests used:
Test in all cases: DTP human tumour cell line panel, 48 h
[1] = test system: MDA-MB-435
[2] = test system: SNB-75 CNS
[3] = test system: BT-549 breast
[4] = test system: KM12 colon
[5] = test system: RXF 393 renal
[6] = test system: OVCAR-4 ovarian
[7] = test system: U251 CNS
[8] = test system: SK-OV-3 ovarian
[9] = test system: HOP-62 NSCLC
[10] = test system: UACC-257 melanoma
[11] = test system: SF-295 CNS
[12] = test system: SF-268 CNS
[13] = test system: T-47D breast
[14] = test system: PC-3 prostate
[15] = test system: NCI-H226 lung
[16] = test system: SK-MEL-2 melanoma
[17] = test system: SF-539 CNS
[18] = test system: LOX IMVI melanoma
[19] = test system: MOLT-4 leukemia
[20] = test system: SK-MEL-5 melanoma
[21] = test system: UACC-62 melanoma
[22] = test system: RPMI-8226 leukemia
[23] = test system: NCI-H460 lung
[24] = test system: CAKI-1 renal
[25] = test system: MALME-3M melanoma
[26] = test system: SK-MEL-28 melanoma
[27] = test system: CCRF-CEM leukemia
[28] = test system: MDA-N
[29] = test system: SN12C renal
[30] = test system: K-562 leukemia
[31] = test system: SW-620 colon
[32] = test system: NCI-H23 lung
[33] = test system: TK-10 renal
[34] = test system: EKVX NSCLC
[35] = test system: NCI/ADR-RES ovarian
[36] = test system: HOP-92 NSCLC
[37] = test system: SNB-19 CNS
[38] = test system: HCT-116 colon
[39] = test system: UO-31 renal
[40] = test system: A498 renal
[41] = test system: ACHN renal
[42] = test system: NCI-H522 lung
[43] = test system: OVCAR-8 ovarian
[44] = test system: A549 NSCLC
[45] = test system: MDA-MB-231 breast
[46] = test system: HCC-2998 colon
[47] = test system: DU-145 prostate
[48] = test system: OVCAR-5 ovarian
[49] = test system: M14 melanoma
[50] = test system: 786-0 renal
[51] = test system: OVCAR-3 ovarian
[52] = test system: IGROV1 ovarian
[53] = test system: SR leukemia
[54] = test system: HS 578T breast
[55] = test system: MCF7 breast
[56] = test system: HCT-15 colon
[57] = test system: COLO 205 colon
[58] = test system: HT29 colon

In the case of CC12c3c4cccc3Oc3cc(N)cc(c31)Oc1cc(N)cc(c12)O4, the TGI [1] is reported as 4.4 µM, the TGI [2] is reported as 14.7 µM and the TGI [3] is reported as 13 µM. For the same compound, the TGI [4] was greater than 39.7 µM, the TGI [5] was 2.67 µM and the TGI [6] was 23.9 µM. The TGI [7] was greater than 100 µM, the TGI [8] was 14.8 µM and the TGI [9] was 18.2 µM. For the same compound, the TGI [10] was 18.3 µM, the TGI [11] was 9.2 µM and the TGI [12] was 10.5 µM. It also gave a TGI [13] greater than 48.5 µM, a TGI [14] of 12.1 µM and a TGI [15] of 13.6 µM. For the same compound, the TGI [16] was 26.5 µM, the TGI [17] was 11.8 µM and the TGI [18] was greater than 41.9 µM. For the same compound, the TGI [19] was 40.2 µM, the TGI [20] was 13 µM and the TGI [21] was 18.5 µM. It also gave a TGI [22] greater than 38.1 µM, a TGI [23] greater than 37.6 µM and a TGI [24] of 24.9 µM. It also gave a TGI [25] of 10.8 µM, a TGI [26] of 27.6 µM and a TGI [27] of 3.74 µM. It also gave a TGI [28] of 3.59 µM, a TGI [29] of 28.6 µM and a TGI [30] greater than 51.5 µM. The TGI [31] was 22.6 µM, the TGI [32] was greater than 46 µM and the TGI [33] was 25.3 µM. The TGI [34] was 9.52 µM, the TGI [35] was greater than 26.3 µM and the TGI [36] was 74.5 µM. For the same compound, the TGI [37] was 38.5 µM, the TGI [38] was 9.44 µM and the TGI [39] was greater than 50.6 µM. The TGI [40] was 34 µM, the TGI [41] was 23.1 µM and the TGI [42] was 4.74 µM. It also gave a TGI [43] of 32 µM, a TGI [44] greater than 40.7 µM and a TGI [45] of 27.4 µM. It also gave a TGI [46] greater than 39 µM, a TGI [47] of 22.6 µM and a TGI [48] of 16.1 µM. For the same compound, the TGI [49] was 19.6 µM, the TGI [50] was 8.72 µM and the TGI [51] was 7.04 µM. For the same compound, the TGI [52] was 13.6 µM, the TGI [53] was 22.6 µM and the TGI [54] was 28.1 µM. For the same compound, the TGI [55] was greater than 40.6 µM, the TGI [56] was greater than 36.7 µM and the TGI [57] was 12.1 µM. The TGI [58] was 40.3 µM.
